Source: patent US11821003B2, “Cardiogenic mesoderm formation regulators” (Sanford Burnham Prebys Medical Discovery Institute, priority 2017, dated 2023)
“Also recorded” adds a separate entry of the source.

Key:
[1] = system: cardiomyocytes derived from Id1 overexpressing h9-hESCs; assay: Beat rate of cardiomyocytes measured optically with VF2.1 Cl; assay type: cell-based, human; conditions: 100 nM, compared to vehicle
Method: FIG. 3F. Schematic of the workflow for the physiological assessment of cardiomyocytes derived from Id1 overexpressing h9-hESCs using the calcium (Fluo-4) and voltage (VF2.1 Cl)(Miller et al., 2012) sensitive dyes.
Next, experiments were performed to determine whether iMP progenitors are bona fide multipotent cardiovascular progenitors and thus able to differentiate into multiple cardiac lineages including functional cardiomyocytes. To address this question, iMPs were first produced in bulk until day 6 of differentiation for mouse, or day 5 for human. At this point, iMPs could be cryopreserved or used fresh. Spontaneous differentiation potential under basal media conditions without cytokines (FIG. 3A) was assessed by RT-qPCR (FIGS. 3B, 3C) and immunostaining (FIG. 3D and FIGS. 9A, 9B) at day 15 of differentiation. […] Although iMPs are multipotent progenitors, the vast majority of the cells (˜70%) spontaneously differentiate into ACTC1^+ cardiomyocytes in hESCs (FIG. 3E). Next, we assessed whether resulting ACTC1^+ cells show characteristics of functional cardiomyocytes, which include the ability to contract, display intracellular calcium oscillations and action potentials, and respond to hormonal stimuli (Birket et al., 2015; Burridge et al., 2014).

mESCs = conditions: cited from earlier work

SMILES | beat rate [1] | Id1 transcripts (mESCs)
CC(C)NCC(O)c1ccc(O)c(O)c1 (centres unmarked) [isoproterenol] | increased beat rate; also recorded: increase in beating frequency | –
NC(=O)c1ccc(-c2nc(-c3ccc4c(c3)OCO4)c(-c3ccccn3)[nH]2)cc1 [SB431542] | – | upregulate Id1 transcripts
